Data on three compounds can be found in patent publication US20250375450A1, “SMARCA2/4 INHIBITION AS A STRATEGY TO TREAT TUMORS THAT HARBOR ABERRANT BAF ASSEMBLIES” (BOARD OF REGENTS, THE UNIVERSITY OF TEXAS SYSTEM, priority 2022, published 2025).

Holding throughout (assay type): biochemical
In assay [1] the target is T1, SMARCA2 (Homo sapiens, UniProt P51531).
T1 construct: The SMARCA2-1 gene (amino acids 437-1493) encompassing all domains; made in house; host or cells: expiSF9 insect cells (baculovirus, pFASTBac1)
T1 sequence (P51531 437-1493): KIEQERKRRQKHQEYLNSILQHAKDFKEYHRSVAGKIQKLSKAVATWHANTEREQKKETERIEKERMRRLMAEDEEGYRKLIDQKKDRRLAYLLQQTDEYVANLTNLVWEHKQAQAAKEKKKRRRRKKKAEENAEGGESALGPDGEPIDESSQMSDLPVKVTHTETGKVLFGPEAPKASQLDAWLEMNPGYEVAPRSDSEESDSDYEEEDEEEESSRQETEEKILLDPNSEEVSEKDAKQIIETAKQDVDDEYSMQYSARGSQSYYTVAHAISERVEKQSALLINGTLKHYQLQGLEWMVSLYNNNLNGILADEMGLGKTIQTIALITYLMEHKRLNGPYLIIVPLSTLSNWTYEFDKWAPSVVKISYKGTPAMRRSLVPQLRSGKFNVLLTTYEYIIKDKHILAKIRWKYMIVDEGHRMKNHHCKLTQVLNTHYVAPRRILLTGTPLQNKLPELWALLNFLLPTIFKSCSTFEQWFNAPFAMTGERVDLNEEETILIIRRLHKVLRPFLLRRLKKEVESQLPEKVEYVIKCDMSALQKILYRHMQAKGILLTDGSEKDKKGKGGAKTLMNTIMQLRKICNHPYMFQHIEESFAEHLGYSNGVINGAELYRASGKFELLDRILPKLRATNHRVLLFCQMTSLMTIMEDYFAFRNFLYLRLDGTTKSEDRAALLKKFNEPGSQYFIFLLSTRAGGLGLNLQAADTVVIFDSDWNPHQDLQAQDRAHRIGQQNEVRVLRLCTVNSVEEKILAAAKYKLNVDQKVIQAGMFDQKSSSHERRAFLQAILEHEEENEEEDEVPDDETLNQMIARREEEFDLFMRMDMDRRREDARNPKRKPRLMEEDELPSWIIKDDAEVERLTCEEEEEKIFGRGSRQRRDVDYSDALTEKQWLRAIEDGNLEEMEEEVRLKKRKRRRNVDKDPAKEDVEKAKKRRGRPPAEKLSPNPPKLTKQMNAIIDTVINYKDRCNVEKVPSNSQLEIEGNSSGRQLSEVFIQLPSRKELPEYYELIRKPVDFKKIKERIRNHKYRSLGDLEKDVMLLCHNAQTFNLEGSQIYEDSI
The assay can be described thus: High-throughput screen (HTS) of 40,000 compounds, ATPase assay. As to conditions: HTS against human SMARCA2. From the text: The SMARCA2-1 gene (amino acids 437-1493) encompassing all domains (HAS, BRK, ATPase and Bromodomain) required for DNA binding and ATPase activity were cloned into a pFASTBac1 plasmid for insect cell expression (FIG. 2A). In brief, one positive colony was selected and grown to produce enough bacmid DNA. The purified bacmid DNA was used to transfect expiSF9 insect cells using ExpiFectamine protocol as recommended by the manufacturer (Invitrogen). The P0 virus was first generated from the transfected cells, which was subsequently used to generate a P1 virus stock to have enough virus for several rounds of infections and/or large-scale production of SMARCA2-1 enzyme. Next, the experimental conditions were optimized for highest expression of this enzyme and the cultures scaled up to express and purify the enzyme by successive passage of soluble fraction through affinity, ion-exchange, and size exclusion chromatography steps (FIG. 2B). Next, a 29-mer double stranded DNA termed as DNA_EEPD1 (sequence below) was used to measure ATPase activity of SMARCA2 (FIG. 2C and FIG. 2D) and its inhibition by the small molecules described herein (FIG. 4D).
(§1) In brief, the disclosed ATPase assay is based on the inorganic phosphate (Pi) release from the enzymatic reaction, wherein the substrate 2-amino-6-mercapto-7-methylpurine ribose (MESG) is converted by purine phosphorylase (PNP) to ribose 1-phosphate and 2-amino-6-mercapto-7-methylpurine. This conversion changes the spectrophotometric shift of MSEG absorbance from 330 nm to 360 nm (FIG. 1C and FIG. 1D).
Briefly, human SMARCA2 was purified, and a high-throughput screen (HTS) of 40,000 compounds was conducted. […] When cells reached 90% confluency, cells were harvested, washed twice in 1×PBS, counted using trypan blue exclusion method. […] Cells were monitored for 72 hrs. by live cell imaging method (Incucyte S3) taking images every two hours. The confluency was determined and plotted against time (hours) by using Prism software.

In assay [2] the target is T1, SMARCA2. The assay can be described thus: Dose response experiment, ATPase assay.
Excerpt: The SMARCA2-1 gene (amino acids 437-1493) encompassing all domains (HAS, BRK, ATPase and Bromodomain) required for DNA binding and ATPase activity were cloned into a pFASTBac1 plasmid for insect cell expression (FIG. 2A). In brief, one positive colony was selected and grown to produce enough bacmid DNA. The purified bacmid DNA was used to transfect expiSF9 insect cells using ExpiFectamine protocol as recommended by the manufacturer (Invitrogen). The P0 virus was first generated from the transfected cells, which was subsequently used to generate a P1 virus stock to have enough virus for several rounds of infections and/or large-scale production of SMARCA2-1 enzyme. […]
as §1
Exemplary compounds were evaluated for their ability to inhibit human SMARCA2 in ATPase assays as detailed in Table 2 below. […]

The target of assay [3] is T1, SMARCA2. The assay can be described thus: Secondary ATPase assay. On the procedure: Exemplary compounds were evaluated for their ability to inhibit human SMARCA2 in ATPase assays as detailed in Table 2 below. Dose response curves for compound nos.

Each structure is given as a SMILES string. pIC50: −log10 of the molar value.

Turning to `O[C@@H]1CC[C@H](Nc2nc(NCc3ccc(Cl)c(Cl)c3)c3ccccc3n2)C1` [Compound 6], the “% ATPase activity in HTS” value on SMARCA2 [1] was determined as 97.3%.

Regarding `COc1cc2nc(NC3CCCC3)nc(NCc3ccc(Cl)c(Cl)c3)c2cc1OC` [Compound 7], on SMARCA2 [1], the “% ATPase activity in HTS” value worked out at 26.9%. For the same compound, on SMARCA2 [2], the IC50 was 25.3 µM.

Compound `Clc1ccc(CNc2nc(NC3CCCC3)nc3ccccc23)cc1Cl` [Compound 8] gave a pIC50 on SMARCA2 [3] of 5.30. Besides, the “% ATPase activity in HTS” value at SMARCA2 [1] was determined as 10.6%. The compound also showed an IC50 at SMARCA2 [2] of 14.8 µM.
